For the assay, the target named is T1, Btk enzyme (His-tagged, full-length) (Homo sapiens, UniProt Q06187).
T1 construct: 5-10 nM Btk enzyme (His-tagged, full-length); His
T1 sequence (Q06187 whole entry): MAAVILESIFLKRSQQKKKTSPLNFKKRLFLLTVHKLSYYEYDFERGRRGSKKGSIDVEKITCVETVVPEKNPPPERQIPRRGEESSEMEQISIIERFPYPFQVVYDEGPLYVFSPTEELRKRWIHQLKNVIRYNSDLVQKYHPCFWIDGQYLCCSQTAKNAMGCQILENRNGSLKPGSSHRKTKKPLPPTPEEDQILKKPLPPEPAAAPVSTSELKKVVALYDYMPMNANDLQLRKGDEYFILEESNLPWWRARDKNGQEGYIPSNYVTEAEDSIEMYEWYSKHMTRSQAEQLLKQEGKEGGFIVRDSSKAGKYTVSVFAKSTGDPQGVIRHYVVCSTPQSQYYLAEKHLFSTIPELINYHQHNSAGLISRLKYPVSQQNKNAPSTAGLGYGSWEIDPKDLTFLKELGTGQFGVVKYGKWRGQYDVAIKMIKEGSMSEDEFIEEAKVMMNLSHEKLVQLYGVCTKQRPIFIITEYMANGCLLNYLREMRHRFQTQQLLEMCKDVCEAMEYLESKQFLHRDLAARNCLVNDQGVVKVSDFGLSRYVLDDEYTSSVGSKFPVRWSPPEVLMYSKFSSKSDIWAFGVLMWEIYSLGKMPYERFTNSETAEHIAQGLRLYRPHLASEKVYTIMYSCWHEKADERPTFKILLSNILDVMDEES
Kind of assay: Bruton's Tyrosine Kinase (Btk) Inhibition Assay (33P filtration capture). Format: biochemical. To be noted: 100 μM ATP, 30 μM peptide substrate, 30 min at 30° C. From the text:
Bruton's Tyrosine Kinase (Btk) Inhibition Assay
The assay is a capture of radioactive ^33P phosphorylated product through filtration. The interactions of Btk, biotinylated SH2 peptide substrate (Src homology), and ATP lead to phosphorylation of the peptide substrate. Biotinylated product is bound streptavidin sepharose beads. All bound, radiolabeled products are detected by scintillation counter.
Plates assayed are 96-well polypropylene (Greiner) and 96-well 1.2 μm hydrophilic PVDF filter plates (Millipore). Concentrations reported here are final assay concentrations: 10-100 μM compounds in DMSO (Burdick and Jackson), 5-10 nM Btk enzyme (His-tagged, full-length), 30 μM peptide substrate (Biotin-Aca-AAAEEIYGEI-NH2), 100 μM ATP (Sigma), 8 mM imidazole (Sigma, pH 7.2), 8 mM glycerol-2-phosphate (Sigma), 200 μM EGTA (Roche Diagnostics), 1 mM MnCl2 (Sigma), 20 mM MgCl2 (Sigma), 0.1 mg/ml BSA (Sigma), 2 mM DTT (Sigma), 1 μCi^33P ATP (Amersham), 20% streptavidin sepharose beads (Amersham), 50 mM EDTA (Gibco), 2 M NaCl (Gibco), 2 M NaCl w/1% phosphoric acid (Gibco), microscint-20 (Perkin Elmer).
IC50 determinations are calculated from 10 data points per compound utilizing data produced from a standard 96-well plate assay template. One control compound and seven unknown inhibitors were tested on each plate and each plate was run twice. Typically, compounds were diluted in half-log starting at 100 μM and ending at 3 nM.The control compound was staurosporine. Background was counted in the absence of peptide substrate. Total activity was determined in the presence of peptide substrate. The following protocol was used to determine Btk inhibition. • 1) Sample preparation: The test compounds were diluted at half-log increments in assay buffer (imidazole, glycerol-2-phosphate, EGTA, MnCl2, MgCl2, BSA). • 2) Bead preparation […]
For the molecule `CN(C)c1ccc2c(c1)CCN(c1cccc(-c3cc(Nc4ccc(C(=O)N5CCOCC5)cn4)c4nccn4n3)c1CO)C2=O` [II-1, 6-Dimethylamino-2-(2-hydroxymethyl-3-{8-[5-(morpholine-4-carbonyl)-pyridin-2-ylamino]-imidazo[1,2-b]pyridazin-6-yl}-phenyl)-3,4-dihydro-2H-isoquinolin-1-one], the IC50 was below 10 nM.

Take `O=C(c1ccc(Nc2cc(-c3cccc(N4CCc5cc(C6CC6)ccc5C4=O)c3CO)nn3ccnc23)nc1)N1CCOCC1` [II-2, 6-Cyclopropyl-2-(2-hydroxymethyl-3-{8-[5-(morpholine-4-carbonyl)-pyridin-2-ylamino]-imidazo[1,2-b]pyridazin-6-yl}-phenyl)-3,4-dihydro-2H-isoquinolin-1-one]: the IC50 was below 10 nM.

On to `CN(C)c1ccc2c(c1)CCN(c1cccc(-c3cc(Nc4ccc(C(=O)N5CCOCC5)cn4)c4nccn4c3)c1CO)C2=O` [II-4, 6-Dimethylamino-2-(2-hydroxymethyl-3-{8-[5-(morpholine-4-carbonyl)-pyridin-2-ylamino]-imidazo[1,2-a]pyridin-6-yl}-phenyl)-3,4-dihydro-2H-isoquinolin-1-one], for which the IC50 is below 10 nM.

Broadly, the IC50 is the concentration that inhibits the measured activity by half. Lower therefore signals greater potency in that assay.

For the origin of these results see US8324211B2, “Inhibitors of bruton's tyrosine kinase” (Roche Palo Alto LLC, priority 2008, dated 2012).
